Measured values reported in ChEMBL document CHEMBL4622860, “The relationship between the structure and toxicity of aminoglycoside antibiotics” (Bioorg Med Chem Lett, 2020).

Tests used:
[1] = Ototoxicity against C57BL/6 mouse cochlea hair cells assessed as reduction in cell viability at 0.1 mM incubated for 23 hrs by FITC-phalloidin staining-based assay; assay type: toxicity; conditions: read-out: INH
[2] = Nephrotoxicity in human patients assessed as proportion of patients with higher serum creatinine level; assay type: toxicity; conditions: in vivo

Work on `NC[C@@H]1O[C@H](O[C@H]2[C@@H](O)[C@H](O[C@@H]3[C@@H](O)[C@H](N)C[C@H](N)[C@H]3O[C@H]3O[C@H](CN)[C@@H](O)[C@H](O)[C@H]3N)O[C@@H]2CO)[C@H](N)[C@@H](O)[C@@H]1O` [FRAMYCETIN] yielded a cytotoxicity at 23 h, 100 µM [1] of 20%.

Work on `NC[C@@H]1O[C@H](O[C@H]2[C@@H](O)[C@H](O[C@@H]3[C@@H](O)[C@H](N)C[C@H](N)[C@H]3O[C@H]3O[C@H](CO)[C@@H](O)[C@H](O)[C@H]3N)O[C@@H]2CO)[C@H](N)[C@@H](O)[C@@H]1O` [PAROMOMYCIN] yielded a cytotoxicity at 23 h, 100 µM [1] of 4%.

In the case of `CN[C@@H]1[C@@H](O)[C@@H](O[C@@H]2[C@@H](O)[C@H](O[C@H]3OC(CNCCO)=CC[C@H]3N)[C@@H](N)C[C@H]2NC(=O)[C@@H](O)CCN)OC[C@]1(C)O` [PLAZOMICIN], the Activity [2] was 7%.
